From article PMC7191645 (Molecular Metabolism, 2020)

Target: β3-adrenoceptor (β3-AR) (Mus musculus, UniProt P25962)
Experiment: Epac1-camps FRET cAMP concentration-response in mature murine brown adipocytes
Assay type: cell-based

Chain of β3-adrenoceptor (β3-AR) (P25962 whole entry): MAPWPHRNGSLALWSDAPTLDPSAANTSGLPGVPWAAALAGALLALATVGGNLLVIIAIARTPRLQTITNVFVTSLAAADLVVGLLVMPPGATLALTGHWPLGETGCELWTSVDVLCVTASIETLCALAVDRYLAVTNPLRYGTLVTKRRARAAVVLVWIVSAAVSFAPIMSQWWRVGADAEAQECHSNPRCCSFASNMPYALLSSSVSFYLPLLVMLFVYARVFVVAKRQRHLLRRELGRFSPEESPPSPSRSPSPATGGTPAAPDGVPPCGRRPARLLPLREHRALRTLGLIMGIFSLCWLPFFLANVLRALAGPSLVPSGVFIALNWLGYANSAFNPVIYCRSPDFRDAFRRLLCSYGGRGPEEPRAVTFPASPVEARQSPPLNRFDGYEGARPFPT

## C[C@H](Cc1ccc2c(c1)OC(C(=O)O)(C(=O)O)O2)NC[C@H](O)c1cccc(Cl)c1 [CL, CL 316,243]
  EC50: 7.8 µM
